The record followed here is patent publication US6638938B1, “Method for preventing tissue injury from hypoxia” (Cell Therapeutics, Inc., priority 1993, dated 2003).

Bounds are passed on as bounds.

In the assay the test system is LPAAT (lysophosphatidic acyltransferase). Kind of assay: inhibition of LPAAT activity. Format: biochemical. As to conditions: extremely weak inhibitor; above clinically achievable concentrations.

Take `CC(=O)CCCCn1c(=O)c2c(ncn2C)n(C)c1=O` [pentoxifylline, 1-(5-oxohexyl)3,7-dimethylxanthine, reference compound]: the “concentration required for inhibition of LPAAT activity” value was > 1 mM.
